# Target: T1, L-lactate dehydrogenase A chain (Homo sapiens, UniProt P00338)
# Assay: Inhibition of human recombinant carboxy-terminal His-tagged LDHA by UV endpoint assay
row,Compound,IC50
1,Cc1csc(SC2=C(O)CC(c3ccccc3)CC2=O)n1 (centres undefined),> 100 µM
2,Cc1cc(C)c(SC2=C(O)CC(c3ccccc3)CC2=O)nc1C#N (centres undefined),> 100 µM
3,O=C1CC(c2ccccc2)CC(O)=C1Sc1cccc(C(F)(F)F)c1 (centres undefined),> 100 µM
4,O=C1CC(c2ccccc2)CC(O)=C1Sc1cc(Cl)cc(Cl)c1 (centres undefined),> 100 µM
5,COc1ccc(C2CC(=O)C(Sc3ccccc3Cl)=C(O)C2)cc1 (centres undefined),19 µM
6,O=C1CC(c2ccccc2)CC(O)=C1Sc1ccc(F)cc1 (centres undefined),> 100 µM
7,COc1ccc(SC2=C(O)CC(c3ccccc3)CC2=O)cc1 (centres undefined),> 100 µM
8,O=C1CC(c2ccccc2)CC(O)=C1Sc1ccccc1Br (centres undefined),53 µM
9,CC(C)SC1=C(O)CC(c2ccccc2)CC1=O (centres undefined),> 100 µM
10,O=C1CC(c2ccccc2)CC(O)=C1Sc1cccc(Cl)c1F (centres undefined),> 100 µM
11,O=C1CC(c2ccccc2)CC(O)=C1Sc1ccc(C(=O)O)cc1 (centres undefined),> 100 µM
12,Cc1cccc(Cl)c1SC1=C(O)CC(c2ccccc2)CC1=O (centres undefined),> 100 µM
13,O=C1CC(c2c(F)cccc2F)CC(O)=C1Sc1ccccc1Cl (centres undefined),7.4 µM
14,O=C1CC(c2ccccc2)CC(O)=C1Sc1cccc(F)c1 (centres undefined),> 100 µM
15,COc1cccc(SC2=C(O)CC(c3ccccc3)CC2=O)c1 (centres undefined),> 100 µM
16,Cc1ccc(C)c(SC2=C(O)CC(c3ccccc3)CC2=O)c1 (centres undefined),> 64 µM
17,CCc1ccc(SC2=C(O)CC(c3ccccc3)CC2=O)cc1 (centres undefined),> 100 µM
18,O=C1CC(c2ccccc2)CC(O)=C1Sc1ccccc1C(F)(F)F (centres undefined),> 66 µM
19,Cc1cc(C)nc(SC2=C(O)CC(c3ccccc3)CC2=O)n1 (centres undefined),> 100 µM
20,CSc1ccc(SC2=C(O)CC(c3ccccc3)CC2=O)cc1 (centres undefined),> 100 µM
21,NC(=O)c1cccc(SC2=C(O)CC(c3ccccc3)CC2=O)c1 (centres undefined),> 100 µM
22,Cc1cccc(SC2=C(O)CC(c3ccccc3)CC2=O)c1 (centres undefined),> 100 µM

row,Compound,IC50
1,O=C1CC(c2ccccc2)CC(O)=C1Sc1ccccc1F (centres undefined),53 µM
2,O=C1CC(c2ccccc2)CC(O)=C1Sc1nc(O)cc(C(F)(F)F)n1 (centres undefined),> 100 µM
3,COc1ccc(CSC2=C(O)CC(c3ccccc3)CC2=O)cc1 (centres undefined),> 100 µM
4,Nc1nnc(SC2=C(O)CC(c3ccccc3)CC2=O)s1 (centres undefined),> 100 µM
5,Cc1cccc(CSC2=C(O)CC(c3ccccc3)CC2=O)c1 (centres undefined),> 100 µM
6,CSc1nnc(SC2=C(O)CC(c3ccccc3)CC2=O)s1 (centres undefined),> 100 µM
7,COC(=O)CSC1=C(O)CC(c2ccccc2)CC1=O (centres undefined),> 100 µM
8,O=C1CC(c2c(Cl)cccc2Br)CC(O)=C1Sc1ccccc1Cl (centres undefined),0.58 µM
9,O=C1CC(c2ccccc2)CC(O)=C1Sc1ccccc1 (centres undefined),> 100 µM
10,CS(=O)(=O)c1ccccc1SC1=C(O)CC(c2ccccc2)CC1=O (centres undefined),> 100 µM
11,O=C1CC(c2ccccc2)CC(O)=C1SCc1ccc(F)cc1 (centres undefined),> 100 µM
12,COc1ccccc1SC1=C(O)CC(c2ccccc2)CC1=O (centres undefined),> 100 µM
13,Cc1ccccc1CSC1=C(O)CC(c2ccccc2)CC1=O (centres undefined),> 100 µM
14,O=C1CC(c2ccc(Cl)cc2)CC(O)=C1Sc1ccccc1Cl (centres undefined),18 µM
15,Cc1nnc(SC2=C(O)CC(c3ccccc3)CC2=O)s1 (centres undefined),> 100 µM
16,O=C1CC(c2ccccc2)CC(O)=C1Sc1ccccn1 (centres undefined),> 100 µM
17,O=C1CC(c2cccc(Cl)c2)CC(O)=C1Sc1ccccc1Cl (centres undefined),5.6 µM
18,COc1ccc(SC2=C(O)CC(c3ccccc3)CC2=O)cc1OC (centres undefined),> 100 µM
19,O=C1CC(c2ccccc2)CC(O)=C1Sc1cccc2ccccc12 (centres undefined),> 100 µM
20,Nc1ccc2nc(SC3=C(O)CC(c4ccccc4)CC3=O)[nH]c2c1 (centres undefined),> 100 µM
21,O=C1CC(c2ccccc2)CC(O)=C1Sc1cccc(Br)c1 (centres undefined),> 100 µM
22,O=C1CC(c2ccccc2)CC(O)=C1Sc1nccs1 (centres undefined),> 100 µM

row,Compound,IC50
1,O=C1CC(c2ccccc2)CC(O)=C1Sc1ccc(C(F)(F)F)cc1 (centres undefined),> 100 µM
2,Nc1cccc(SC2=C(O)CC(c3ccccc3)CC2=O)c1 (centres undefined),> 100 µM
3,O=C1CC(c2ccccc2)CC(O)=C1SCc1ccc(Cl)cc1Cl (centres undefined),> 100 µM
4,Cc1ccc(SC2=C(O)CC(c3ccccc3)CC2=O)cc1C (centres undefined),> 100 µM
5,Nc1cc(N)nc(SC2=C(O)CC(c3ccccc3)CC2=O)n1 (centres undefined),> 100 µM
6,CCC(C)CSC1=C(O)CC(c2ccccc2)CC1=O (centres undefined),> 100 µM
7,O=C1CC(c2ccccc2)CC(O)=C1Sc1cccs1 (centres undefined),> 100 µM
8,O=C1CC(c2ccccc2)CC(O)=C1Sc1ncc[nH]1 (centres undefined),> 100 µM
9,N#Cc1ccccc1SC1=C(O)CC(c2cccc(Cl)c2)CC1=O (centres undefined),6.8 µM
10,O=C1CC(c2ccccc2)CC(O)=C1Sc1ccccc1C(=O)O (centres undefined),> 100 µM
11,NC(=O)c1ccccc1SC1=C(O)CC(c2ccccc2)CC1=O (centres undefined),> 100 µM
12,Cc1ccccc1SC1=C(O)CC(c2ccccc2)CC1=O (centres undefined),> 100 µM
13,CC(=O)Nc1ccc(SC2=C(O)CC(c3ccccc3)CC2=O)cc1 (centres undefined),> 100 µM
14,O=C1CC(c2ccccc2)CC(O)=C1SCc1ccccc1 (centres undefined),> 100 µM
15,Cc1cccc(C)c1C1CC(=O)C(Sc2ccccc2Cl)=C(O)C1 (centres undefined),2.3 µM
16,O=C1CC(c2ccccc2)CC(O)=C1Sc1ccc(Cl)c(Cl)c1 (centres undefined),> 100 µM
17,N#Cc1ccccc1SC1=C(O)CC(c2ccccc2Cl)CC1=O (centres undefined),3.1 µM
18,O=C1CC(c2ccccc2)CC(O)=C1Sc1ccc(Br)cc1 (centres undefined),> 100 µM
19,O=C1CC(c2ccccc2Cl)CC(O)=C1Sc1ccccc1Cl (centres undefined),5.6 µM
20,COC(=O)CCSC1=C(O)CC(c2ccccc2)CC1=O (centres undefined),> 100 µM
21,O=C1CC(c2c(Cl)ccc(Br)c2Cl)CC(O)=C1Sc1ccccc1Cl (centres undefined),0.5 µM
22,Cc1ccc(SC2=C(O)CC(c3ccccc3)CC2=O)c(C)c1 (centres undefined),> 100 µM

row,Compound,IC50
1,O=C1CC(c2ccccc2)CC(O)=C1Sc1cccc(OC(F)(F)F)c1 (centres undefined),> 100 µM
2,O=C1CC(c2ccccc2)CC(O)=C1Sc1ccccc1CO (centres undefined),36 µM
3,O=C1CC(c2c(F)cccc2Cl)CC(O)=C1Sc1ccccc1Cl (centres undefined),3.7 µM
4,O=C1CC(c2ccccc2)CC(O)=C1Sc1ccc(F)cc1F (centres undefined),> 100 µM
5,O=C1CC(c2ccccc2)CC(O)=C1Sc1c(Cl)cccc1Cl (centres undefined),> 100 µM
6,O=C1CC(c2ccccc2)CC(O)=C1Sc1ncccn1 (centres undefined),> 100 µM
7,N#Cc1ccccc1SC1=C(O)CC(c2ccc(Cl)cc2)CC1=O (centres undefined),17 µM
8,O=C1CC(c2ccccc2)CC(O)=C1Sc1cccc(Cl)c1Cl (centres undefined),63 µM
9,Cc1cnc(SC2=C(O)CC(c3ccccc3)CC2=O)nc1O (centres undefined),> 100 µM
10,COC(=O)c1ccccc1SC1=C(O)CC(c2ccccc2)CC1=O (centres undefined),> 100 µM
11,CCc1ccccc1SC1=C(O)CC(c2ccccc2)CC1=O (centres undefined),> 100 µM
12,O=C1CC(c2ccccc2)CC(O)=C1SCc1cccc(C(F)(F)F)c1 (centres undefined),> 100 µM
13,O=C1CC(c2ccccc2)CC(O)=C1SCCO (centres undefined),> 100 µM
14,COc1ccc(OC)c(SC2=C(O)CC(c3ccccc3)CC2=O)c1 (centres undefined),> 100 µM
15,O=C1CC(c2c(Br)cccc2Br)CC(O)=C1Sc1ccccc1Cl (centres undefined),0.27 µM
16,N#Cc1ccccc1SC1=C(O)CC(c2c(Cl)cccc2C(F)(F)F)CC1=O (centres undefined),0.64 µM
17,Cc1cccc(C)c1C1CC(=O)C(Sc2ccccc2C#N)=C(O)C1 (centres undefined),2.1 µM
18,Cc1cc(C)cc(SC2=C(O)CC(c3ccccc3)CC2=O)c1 (centres undefined),> 100 µM
19,N#Cc1ccccc1SC1=C(O)CC(c2c(Br)cccc2Br)CC1=O (centres undefined),0.18 µM
20,O=C1CC(c2ccccc2)CC(O)=C1SC1CCCCC1 (centres undefined),> 100 µM
21,O=C1CC(c2ccccc2)CC(O)=C1Sc1nc2ccccc2o1 (centres undefined),> 100 µM
22,Cc1ccc(SC2=C(O)CC(c3ccccc3)CC2=O)cc1 (centres undefined),> 100 µM

row,Compound,IC50
1,Nc1ccc(SC2=C(O)CC(c3ccccc3)CC2=O)cc1 (centres undefined),> 100 µM
2,O=C1CC(c2ccccc2)CC(O)=C1Sc1ccc2ccccc2c1 (centres undefined),> 100 µM
3,O=C1CC(c2ccccc2)CC(O)=C1Sc1ccc(F)cc1Cl (centres undefined),24 µM
4,O=C1CC(c2ccccc2)CC(O)=C1Sc1ccccc1O (centres undefined),> 100 µM
5,O=C1CC(c2ccccc2)CC(O)=C1Sc1cc(Cl)ccc1Cl (centres undefined),12 µM
6,Cc1cccc(C)c1SC1=C(O)CC(c2ccccc2)CC1=O (centres undefined),> 100 µM
7,O=C1CC(c2ccccc2)CC(O)=C1Sc1cccc(Cl)c1 (centres undefined),> 100 µM
8,CCOC(=O)c1cnc(SC2=C(O)CC(c3ccccc3)CC2=O)nc1N (centres undefined),> 100 µM
9,NS(=O)(=O)c1cccc(SC2=C(O)CC(c3ccccc3)CC2=O)c1 (centres undefined),> 100 µM
10,O=C1CC(c2ccccc2)CC(O)=C1Sc1ccc(O)cc1 (centres undefined),> 100 µM
11,Cc1ccnc(SC2=C(O)CC(c3ccccc3)CC2=O)n1 (centres undefined),> 100 µM
12,CC(C)C(C)SC1=C(O)CC(c2ccccc2)CC1=O (centres undefined),> 100 µM
13,O=C1CC(c2ccccc2)CC(O)=C1Sc1nncs1 (centres undefined),> 100 µM
14,O=C1CC(c2ccccc2)CC(O)=C1Sc1nc2ccccc2s1 (centres undefined),> 100 µM
15,Cc1ccc(CSC2=C(O)CC(c3ccccc3)CC2=O)cc1 (centres undefined),> 100 µM
16,O=C1CC(c2ccccc2)CC(O)=C1Sc1ccc(Cl)cc1 (centres undefined),> 100 µM
17,O=C1CC(c2ccccc2)CC(O)=C1Sc1nc2ccc(Cl)cc2[nH]1 (centres undefined),> 100 µM
18,Cc1ccc2nc(SC3=C(O)CC(c4ccccc4)CC3=O)[nH]c2c1 (centres undefined),> 100 µM

# Target: T1, L-lactate dehydrogenase A chain
# Assay: Inhibition of human recombinant carboxy-terminal His-tagged LDHA by SPR assay
row,Compound,Kd
1,COc1ccc(C2CC(=O)C(Sc3ccccc3Cl)=C(O)C2)cc1 (centres undefined),13 µM
2,O=C1CC(c2c(Cl)cccc2Br)CC(O)=C1Sc1ccccc1Cl (centres undefined),0.49 µM
3,O=C1CC(c2ccc(Cl)cc2)CC(O)=C1Sc1ccccc1Cl (centres undefined),27 µM
4,O=C1CC(c2cccc(Cl)c2)CC(O)=C1Sc1ccccc1Cl (centres undefined),7.1 µM
5,O=C1CC(c2ccccc2Cl)CC(O)=C1Sc1ccccc1Cl (centres undefined),8.2 µM
6,O=C1CC(c2c(Cl)ccc(Br)c2Cl)CC(O)=C1Sc1ccccc1Cl (centres undefined),0.37 µM

# Target: L-lactate dehydrogenase B chain (Homo sapiens, UniProt P07195)
# Sequence (P07195 whole entry): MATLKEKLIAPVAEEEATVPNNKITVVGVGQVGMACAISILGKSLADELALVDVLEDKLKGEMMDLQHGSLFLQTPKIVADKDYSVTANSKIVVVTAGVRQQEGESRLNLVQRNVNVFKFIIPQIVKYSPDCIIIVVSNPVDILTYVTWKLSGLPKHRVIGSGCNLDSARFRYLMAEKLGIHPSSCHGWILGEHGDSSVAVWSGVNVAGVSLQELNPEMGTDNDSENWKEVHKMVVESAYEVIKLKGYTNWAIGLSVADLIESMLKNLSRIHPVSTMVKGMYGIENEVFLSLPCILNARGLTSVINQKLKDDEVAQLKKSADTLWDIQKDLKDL
# Description: Inhibition of human recombinant carboxy-terminal His-tagged LDHB by UV endpoint assay
row,Compound,IC50
1,COc1ccc(C2CC(=O)C(Sc3ccccc3Cl)=C(O)C2)cc1 (centres undefined),6.9 µM
2,O=C1CC(c2c(F)cccc2F)CC(O)=C1Sc1ccccc1Cl (centres undefined),1.3 µM
3,O=C1CC(c2c(Cl)cccc2Br)CC(O)=C1Sc1ccccc1Cl (centres undefined),3.4 µM
4,N#Cc1ccccc1SC1=C(O)CC(c2cccc(Cl)c2)CC1=O (centres undefined),> 10 µM
5,Cc1cccc(C)c1C1CC(=O)C(Sc2ccccc2Cl)=C(O)C1 (centres undefined),1.9 µM
6,N#Cc1ccccc1SC1=C(O)CC(c2ccccc2Cl)CC1=O (centres undefined),6.6 µM
7,O=C1CC(c2c(Cl)ccc(Br)c2Cl)CC(O)=C1Sc1ccccc1Cl (centres undefined),> 10 µM
8,O=C1CC(c2c(F)cccc2Cl)CC(O)=C1Sc1ccccc1Cl (centres undefined),5.3 µM
9,N#Cc1ccccc1SC1=C(O)CC(c2ccc(Cl)cc2)CC1=O (centres undefined),> 10 µM
10,O=C1CC(c2c(Br)cccc2Br)CC(O)=C1Sc1ccccc1Cl (centres undefined),15 µM
11,N#Cc1ccccc1SC1=C(O)CC(c2c(Cl)cccc2C(F)(F)F)CC1=O (centres undefined),2.8 µM
12,Cc1cccc(C)c1C1CC(=O)C(Sc2ccccc2C#N)=C(O)C1 (centres undefined),7.8 µM

# Reference: ChEMBL document CHEMBL3352775, “Identification of substituted 3-hydroxy-2-mercaptocyclohex-2-enones as potent inhibitors of human lactate dehydrogenase” (Bioorg Med Chem Lett, 2014)
